Data reported in patent US20250275540A1, “USE OF PROTOPORPHYRINOGEN OXIDASE” (BEIJING DABEINONG BIOTECHNOLOGY CO., LTD., priority 2022, published 2025).

Tested on: transgenic Arabidopsis thaliana T1 plants
Test: Detection of the herbicide tolerance of the transgenic Arabidopsis thaliana plants
Assay type: in vivo
Details: for The grade of pesticide damage/plant: 0 / The grade of pesticide damage/plant: 1 / The grade of pesticide damage/plant: 2 / The grade of pesticide damage/plant: 3: 7 DAT
Description: The transformed Arabidopsis thaliana T1 plants were initially selected using glufosinate herbicide. The Arabidopsis thaliana T1 plants (PPOA-01) into which the PPOA-01 nucleotide sequence was introduced, the Arabidopsis thaliana T1 plants (PPOB-01) into which the PPOB-01 nucleotide sequence was introduced, the Arabidopsis thaliana T1 plants (PPOC-01) into which the PPOC-01 nucleotide sequence was introduced, the Arabidopsis thaliana T1 plants (PPOD-01) into which the PPOD-01 nucleotide sequence was introduced, the Arabidopsis thaliana T1 plants (PPOE-01) into which the PPOE-01 nucleotide sequence was introduced, the Arabidopsis thaliana T1 plants (PPOF-01) into which the PPOF-01 nucleotide sequence was introduced, the Arabidopsis thaliana T1 plants (PPO-AP-01) into which the PPO-AP-01 nucleotide sequence was introduced, and the Arabidopsis thaliana T1 plants (control vector) into which the control vector was introduced, the wild-type Arabidopsis thaliana plants (CK) (with 24 plants being included in each genotype) (18 days after sowing) were sprayed with saflufenacil at three concentrations (25 g ai/ha (one-fold field concentration, 1×), 100 g ai/ha (four-fold field concentration, 4×), and 0 g ai/ha (water, 0×)), oxyfluorfen at three concentrations (180 g ai/ha (one-fold field concentration, 1×), 720 g ai/ha (four-fold field concentration, 4×), and 0 g ai/ha (water, 0×)), and flumioxazin at three concentrations (60 g ai/ha (one-fold field concentration, 1×), 240 g ai/ha (four-fold field concentration, 4×), and 0 g ai/ha (water, 0×) to determine the tolerance of Arabidopsis thaliana to the herbicides. After 7 days of spraying (7 DAT), the damage level of each plant caused by the herbicide was evaluated according to the average of the damage levels (%) of plants (the average of the damage levels (%) of plants=the injured leaf area/the total leaf area×100%), i.e., the grade of pesticide damage: grade 0 means that the growth status of plants is essentially consistent with those sprayed with the blank solvent (water); grade 1 means that the average of the damage levels of plants is less than 10%; grade 2 means that the average of the damage levels of plants is greater than 10%; and grade 3 means that the average of the damage levels of plants is 100%. The plants having a growth status falling within grades 0 and 1 are classified as highly resistant plants; those having a growth status falling within grade 2 are classified as poorly resistant plants; and those having a growth status falling within grade 3 are classified as non-resistant plants.

[1] = genotype Control vector, 60 g ai/ha
[2] = genotype Control vector, 240 g ai/ha
[3] = genotype PPO-AP-01, 240 g ai/ha

## C#CCN1C(=O)COc2cc(F)c(N3C(=O)C4=C(CCCC4)C3=O)cc21 [flumioxazin, 2-[7-fluoro-3,4-dihydro-3-oxo-4-(2-propynyl)-2H-1,4-benzoxazin-6-yl]-4,5,6,7-tetrahydro-1H-isoindole-1,3(2H)-dione]
Arabidopsis thaliana
  effective dose distinguishing sensitive plants from plants having an average level of resistance: 60 g ai/ha
Genotype CK, 60 g ai/ha
  The grade of pesticide damage/plant: 0: 0 plant
  The grade of pesticide damage/plant: 1: 0 plant
  The grade of pesticide damage/plant: 2: 0 plant
  The grade of pesticide damage/plant: 3: 24 plant
Genotype CK, 240 g ai/ha
  The grade of pesticide damage/plant: 0: 0 plant
  The grade of pesticide damage/plant: 1: 0 plant
  The grade of pesticide damage/plant: 2: 0 plant
  The grade of pesticide damage/plant: 3: 24 plant
[1]
  The grade of pesticide damage/plant: 0: 0 plant
  The grade of pesticide damage/plant: 1: 0 plant
  The grade of pesticide damage/plant: 2: 0 plant
  The grade of pesticide damage/plant: 3: 24 plant
[2]
  The grade of pesticide damage/plant: 0: 0 plant
  The grade of pesticide damage/plant: 1: 0 plant
  The grade of pesticide damage/plant: 2: 0 plant
  The grade of pesticide damage/plant: 3: 24 plant
Genotype PPO-AP-01, 60 g ai/ha
  The grade of pesticide damage/plant: 0: 0 plant
  The grade of pesticide damage/plant: 1: 0 plant
  The grade of pesticide damage/plant: 2: 0 plant
  The grade of pesticide damage/plant: 3: 24 plant
[3]
  The grade of pesticide damage/plant: 0: 0 plant
  The grade of pesticide damage/plant: 1: 0 plant
  The grade of pesticide damage/plant: 2: 0 plant
  The grade of pesticide damage/plant: 3: 24 plant
Genotype PPO-AP-01, four-fold field concentration
  tolerance to the herbicide (in words): no tolerance
Genotype PPO-AP-01, one-fold field concentration
  tolerance to the herbicide (in words): no tolerance
Genotype PPOA-01, 60 g ai/ha
  The grade of pesticide damage/plant: 0: 24 plant
  The grade of pesticide damage/plant: 1: 0 plant
  The grade of pesticide damage/plant: 2: 0 plant
  The grade of pesticide damage/plant: 3: 0 plant
Genotype PPOA-01, 240 g ai/ha
  The grade of pesticide damage/plant: 0: 18 plant
  The grade of pesticide damage/plant: 1: 6 plant
  The grade of pesticide damage/plant: 2: 0 plant
  The grade of pesticide damage/plant: 3: 0 plant
Genotype PPOB-01, 60 g ai/ha
  The grade of pesticide damage/plant: 0: 24 plant
  The grade of pesticide damage/plant: 1: 0 plant
  The grade of pesticide damage/plant: 2: 0 plant
  The grade of pesticide damage/plant: 3: 0 plant
Genotype PPOB-01, 240 g ai/ha
  The grade of pesticide damage/plant: 0: 18 plant
  The grade of pesticide damage/plant: 1: 6 plant
  The grade of pesticide damage/plant: 2: 0 plant
  The grade of pesticide damage/plant: 3: 0 plant
Genotype PPOC-01, 60 g ai/ha
  The grade of pesticide damage/plant: 0: 24 plant
  The grade of pesticide damage/plant: 1: 0 plant
  The grade of pesticide damage/plant: 2: 0 plant
  The grade of pesticide damage/plant: 3: 0 plant
Genotype PPOC-01, 240 g ai/ha
  The grade of pesticide damage/plant: 0: 24 plant
  The grade of pesticide damage/plant: 1: 0 plant
  The grade of pesticide damage/plant: 2: 0 plant
  The grade of pesticide damage/plant: 3: 0 plant
Genotype PPOD-01, 60 g ai/ha
  The grade of pesticide damage/plant: 0: 24 plant
  The grade of pesticide damage/plant: 1: 0 plant
  The grade of pesticide damage/plant: 2: 0 plant
  The grade of pesticide damage/plant: 3: 0 plant
Genotype PPOD-01, 240 g ai/ha
  The grade of pesticide damage/plant: 0: 24 plant
  The grade of pesticide damage/plant: 1: 0 plant
  The grade of pesticide damage/plant: 2: 0 plant
  The grade of pesticide damage/plant: 3: 0 plant
Genotype PPOE-01, 60 g ai/ha
  The grade of pesticide damage/plant: 0: 22 plant
  The grade of pesticide damage/plant: 1: 2 plant
  The grade of pesticide damage/plant: 2: 0 plant
  The grade of pesticide damage/plant: 3: 0 plant
Genotype PPOE-01, 240 g ai/ha
  The grade of pesticide damage/plant: 0: 23 plant
  The grade of pesticide damage/plant: 1: 0 plant
  The grade of pesticide damage/plant: 2: 0 plant
  The grade of pesticide damage/plant: 3: 1 plant
Genotype PPOE-01, four-fold field concentration
  number of non-resistant plants: 1 plant
Genotype PPOE-01, the other plants, four-fold field concentration
  tolerance to the herbicide (in words): high-resistant tolerance
Genotype PPOF-01, 60 g ai/ha
  The grade of pesticide damage/plant: 0: 24 plant
  The grade of pesticide damage/plant: 1: 0 plant
  The grade of pesticide damage/plant: 2: 0 plant
  The grade of pesticide damage/plant: 3: 0 plant
Genotype PPOF-01, 240 g ai/ha
  The grade of pesticide damage/plant: 0: 18 plant
  The grade of pesticide damage/plant: 1: 6 plant
  The grade of pesticide damage/plant: 2: 0 plant
  The grade of pesticide damage/plant: 3: 0 plant
Genotypes PPOA-01 to PPOD-01 and PPOF-01, four-fold field concentration
  tolerance to the herbicide (in words): high-resistant tolerance
Genotypes PPOA-01 to PPOF-01, one-fold field concentration
  tolerance to the herbicide (in words): high-resistant tolerance
